Test results as given in BindingDB's records for patent US20250042903 (H. Lee Moffitt Cancer Center and Research Institute, 2025).

Target: Cyclin-dependent kinase 12 (Homo sapiens, UniProt Q9NYV4)
Experiment: Not found
Description: Not found

Chain of Cyclin-dependent kinase 12 (Q9NYV4 whole entry): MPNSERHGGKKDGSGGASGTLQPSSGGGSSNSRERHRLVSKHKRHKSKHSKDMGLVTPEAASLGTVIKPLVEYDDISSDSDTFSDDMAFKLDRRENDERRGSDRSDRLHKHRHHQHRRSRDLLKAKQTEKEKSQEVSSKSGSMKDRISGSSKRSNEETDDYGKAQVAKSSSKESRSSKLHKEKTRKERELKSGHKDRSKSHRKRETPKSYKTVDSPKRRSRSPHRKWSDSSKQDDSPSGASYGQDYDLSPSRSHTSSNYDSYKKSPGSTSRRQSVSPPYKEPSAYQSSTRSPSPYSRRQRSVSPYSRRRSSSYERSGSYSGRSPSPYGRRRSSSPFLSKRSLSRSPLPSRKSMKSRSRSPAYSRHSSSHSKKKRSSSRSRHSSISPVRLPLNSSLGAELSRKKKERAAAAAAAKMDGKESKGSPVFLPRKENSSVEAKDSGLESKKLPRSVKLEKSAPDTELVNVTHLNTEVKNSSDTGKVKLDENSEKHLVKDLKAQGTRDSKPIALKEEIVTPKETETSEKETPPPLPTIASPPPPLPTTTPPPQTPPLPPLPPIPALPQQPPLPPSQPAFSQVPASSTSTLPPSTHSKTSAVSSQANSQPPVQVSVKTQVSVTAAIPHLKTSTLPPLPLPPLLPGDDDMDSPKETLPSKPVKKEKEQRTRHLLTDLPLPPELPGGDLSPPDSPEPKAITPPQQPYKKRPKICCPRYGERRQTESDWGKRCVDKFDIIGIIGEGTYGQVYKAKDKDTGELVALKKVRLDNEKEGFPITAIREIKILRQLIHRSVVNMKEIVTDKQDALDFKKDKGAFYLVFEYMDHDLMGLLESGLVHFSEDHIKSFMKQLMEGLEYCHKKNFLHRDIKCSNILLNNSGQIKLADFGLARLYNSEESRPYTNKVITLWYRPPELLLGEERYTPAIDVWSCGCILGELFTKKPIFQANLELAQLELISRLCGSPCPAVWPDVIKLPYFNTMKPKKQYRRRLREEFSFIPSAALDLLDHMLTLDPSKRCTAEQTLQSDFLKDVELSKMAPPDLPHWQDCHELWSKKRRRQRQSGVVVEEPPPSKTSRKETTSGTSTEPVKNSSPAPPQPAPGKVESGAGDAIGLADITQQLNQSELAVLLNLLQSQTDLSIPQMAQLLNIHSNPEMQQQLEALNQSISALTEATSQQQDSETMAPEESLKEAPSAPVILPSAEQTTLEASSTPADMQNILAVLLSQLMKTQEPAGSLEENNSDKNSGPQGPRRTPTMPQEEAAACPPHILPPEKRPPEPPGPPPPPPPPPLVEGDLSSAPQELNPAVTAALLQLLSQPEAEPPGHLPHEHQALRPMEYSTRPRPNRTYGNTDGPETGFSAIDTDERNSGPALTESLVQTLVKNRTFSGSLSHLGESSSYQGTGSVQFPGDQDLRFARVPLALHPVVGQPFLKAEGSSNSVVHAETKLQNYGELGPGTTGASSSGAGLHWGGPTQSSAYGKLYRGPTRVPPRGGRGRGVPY

| IC50 | Compound |
| --- | --- |
| 554 nM | CN1CC(C2C=NN3C(NCc4nc5cc(Cl)c(Cl)cc5[nH]4)=NC(N4CCOCC4)=NC23)C=N1 (configuration not stated) [US20250042903, Compound 1] |
| 262 nM | FC(F)N1CC(C2C=NN3C(NCc4nc5cc(Cl)c(Cl)cc5[nH]4)=NC(N4CCOCC4)=NC23)C=N1 (configuration not stated) [US20250042903, Compound 2] |
